{
  "source": "patent US12670969B2",
  "about": "“Network medicine framework for identifying drug repurposing opportunities” (Northeastern University, priority 2020, dated 2026)",
  "key": {"SARS-CoV-2": {"tested_on": "SARS-CoV-2", "details": "positive control used at 5 μM; cited from earlier work"}, "[1]": {"tested_on": "SARS-CoV-2 strain USA-WA1/2020", "assay_type": "cell-based", "details": "VeroE6 cells, drugs from 8 μM down to 8 nM"}, "Huh7 cells": {"tested_on": "Huh7 cells", "details": "in high concentration"}, "Caco-2": {"tested_on": "Caco-2", "details": "Caco-2 cells; cited from earlier work"}},
  "data": [
    {"smiles": "CC(C)C[C@H](NC(=O)[C@H]1O[C@@H]1C(=O)O)C(=O)NCCCCN=C(N)N", "note": "[E-64]", "values": [
      {"measurement": "inhibition of SARS-CoV-2 infection, previously reported", "setting": "SARS-CoV-2", "result": "inhibit SARS-CoV-2 infection"}
    ]},
    {"smiles": "CC(C)c1nc(CN(C)C(=O)N[C@H](C(=O)N[C@@H](Cc2ccccc2)C[C@H](O)[C@H](Cc2ccccc2)NC(=O)OCc2cncs2)C(C)C)cs1", "note": "[Ritonavir]", "values": [
      {"measurement": "outcome in VeroE6 screen, in words", "setting": "[1]", "result": "no effect"}
    ]},
    {"smiles": "CN(C)CCC=C1c2ccccc2CCc2ccccc21", "note": "[amitriptyline]", "values": [
      {"measurement": "outcome in VeroE6 screen, in words", "setting": "[1]", "result": "S&W"}
    ]},
    {"smiles": "CC(=O)OC[C@H]1O[C@@H]([S-])[C@H](OC(C)=O)[C@@H](OC(C)=O)[C@@H]1OC(C)=O.CCP(CC)CC.[Au+]", "note": "[auranofin]", "values": [
      {"measurement": "cytotoxicity in Huh7 cells (reduced nuclei count)", "setting": "Huh7 cells", "result": "tracing cytotoxicity"}
    ]},
    {"smiles": "CN1CCCC(n2nc(Cc3ccc(Cl)cc3)c3ccccc3c2=O)CC1", "note": "(stereo not drawn) [azelastine]", "values": [
      {"measurement": "cytotoxicity in Huh7 cells (reduced nuclei count)", "setting": "Huh7 cells", "result": "tracing cytotoxicity"}
    ]},
    {"smiles": "CCN(CC)CCCC(C)Nc1ccnc2cc(Cl)ccc12", "note": "(stereo not drawn) [chloroquine]", "values": [
      {"measurement": "outcome in VeroE6 screen, in words", "setting": "[1]", "result": "positive outcomes"}
    ]},
    {"smiles": "CCN(CCO)CCCC(C)Nc1ccnc2cc(Cl)ccc12", "note": "(stereo not drawn) [hydroxychloroquine]", "values": [
      {"measurement": "outcome in VeroE6 screen, in words", "setting": "[1]", "result": "positive outcomes"}
    ]},
    {"smiles": "CCOC(=O)N1CCC(=C2c3ccc(Cl)cc3CCc3cccnc32)CC1", "note": "[loratadine]", "values": [
      {"measurement": "drug-response classification (S, W, C, N) of effect on SARS-CoV-2 infection", "setting": "[1]; MOI about 0.2", "result": "N"},
      {"measurement": "viral activity in human cell line Caco-2", "setting": "Caco-2", "result": "inhibited viral activity"}
    ]}
  ]
}
